In PubChem BioAssay (NCI):
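Step 1: Grow cells in 96-well plates. Step 2: Expose to compound for 48 hours at 5 concentrations. Step 3: Interpolate endpoints linearly; if unreached, use highest concentration. GI50 is the concentration that inhibits growth by half. TGI is the concentration that stops growth completely.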

Key:
Assay in all cases: NCI anticancer screen, dose series, 48 h
[1] = test system: COLO 205 colon
[2] = test system: HCT-116 colon
[3] = test system: HL-60(TB) leukemia
[4] = test system: HOP-62 NSCLC
[5] = test system: K-562 leukemia
[6] = test system: NCI-H23 lung
[7] = test system: OVCAR-3 ovarian
[8] = test system: PC-3 prostate
[9] = test system: SK-MEL-5 melanoma
[10] = test system: T-47D breast

Structure (SMILES)	GI50 [1] [µM]	TGI [1] [µM]	GI50 [2] [µM]	TGI [2] [µM]	GI50 [3] [µM]	TGI [3] [µM]	GI50 [4] [µM]	TGI [4] [µM]	GI50 [5] [µM]	TGI [5] [µM]	GI50 [6] [µM]	TGI [6] [µM]	GI50 [7] [µM]	TGI [7] [µM]	GI50 [8] [µM]	TGI [8] [µM]	GI50 [9] [µM]	TGI [9] [µM]	GI50 [10] [µM]	TGI [10] [µM]
Cn1c2ccccc2c2c(-c3ccccc3)[n+]3ccncc3nc21	29.5	> 100	> 100	> 100	> 100	> 100	> 100	> 100	> 100	> 100	> 100	> 100	> 100	> 100	> 100	> 100	37.2	> 100	55.3	> 100
C=C1C(=O)O[C@H]2[C@H]1CC/C(COC(=O)c1ccc3ccccc3c1)=C\CC[C@@]1(C)O[C@@H]21	1.36	2.94	0.379	1.6	0.849	3.83	1.56	2.97	0.39	5.47	1.6	3.36	0.538	1.77	1.24	2.79	1.63	3	1.03	2.73
COc1ccc(/C=C/c2nccc3ccccc23)cc1OC	–	> 10	–	> 10	–	> 10	–	> 10	–	> 10	–	> 10	–	> 10	–	> 10	–	> 10	–	> 10
CC1=CC(=Nc2ccc(N(CCCl)CCCl)cc2)C=C(C)C1=O	1.49	4.67	0.935	2.38	0.309	2.9	1.1	7.37	1.21	> 100	0.768	4.36	1.05	3.13	1.48	7.08	1.72	5.17	0.64	3.22
COc1cc(C2=NOC(c3cc(OC)c(OC)c(OC)c3)C2)ccc1OCCCCOc1cc2c(cc1OC)C(=O)N1CCC[C@H]1C=N2 (stereo partly drawn)	0.245	0.586	0.216	0.575	0.309	6.5	0.29	0.709	1.72	–	0.241	0.559	0.322	2.51	0.347	3.1	0.168	0.319	0.481	–
Nc1cc(N)c2nc(-c3ccccc3)c(Nc3ccc(Cl)c(Cl)c3)nc2c1	11.7	31.3	10.6	53	2.59	71.7	17.5	38.4	3.57	> 100	19.1	55.2	2.93	9.91	3.12	15.1	11	25.5	11.6	31.1
CCOc1cc2c(Cl)ncnc2c(OCC)c1OCC	12.2	25.5	3.39	11.9	2.35	15.5	15.5	30.9	2.72	12.5	7.71	24.2	4	10.8	3.2	11.4	3.8	12.1	6.11	22.8
COC1/C=C\C=C(/C)C(=O)NC2=CC(=O)C(=O)C(=C2O)CC(C)CC(OC)C(O)C(C)/C=C(\C)C1OC(N)=O (stereo not drawn)	–	13.3	–	14.4	–	> 35.5	–	> 74.1	–	> 100	–	> 100	–	19.7	–	> 37.7	–	43.7	–	70.9
CN1CCN(C)C12C=c1ccccc1=CC21CC1	–	25.6	–	56.9	–	46.1	–	> 100	–	46.4	–	> 100	–	> 100	–	> 96.3	–	51.1	–	> 86.2
CC[CH2][Sn]([CH2]CC)([O]C(=O)c1cccnc1SC)[O][Sn]([CH2]CC)([CH2]CC)[O]C(=O)c1cccnc1SC	0.396	1.08	0.452	1.48	0.26	4.24	2.32	5.31	0.0756	4.32	0.218	0.801	0.583	1.85	2.3	6.48	0.898	3.26	0.287	1.52
CC[C@]1(O)C[C@@H]2CN(CCc3c([nH]c4ccccc34)[C@@](C(=O)OC)(c3cc4c(cc3OC)N(C)[C@H]3[C@@](O)(C(=O)OC)[C@H](OC(C)=O)[C@]5(CC)C=CCN6CC[C@]43[C@@H]65)C2)C1	< 0.01	< 0.0194	< 0.01	15	< 0.01	< 0.01	< 0.01	24.1	< 0.01	14.6	< 0.01	> 100	< 0.01	< 0.01	< 0.01	22.2	< 0.01	< 0.0385	8.59	> 100
Oc1ccc2ccccc2c1N=Nc1nccs1	1.6	13.6	0.213	6.09	0.267	> 100	3.87	56.8	0.438	> 100	5.83	27.8	0.417	8.99	1.13	> 66.1	3.55	15.6	1.71	12.6
